# Molecular target: Phosphatidylinositol 3-kinase regulatory subunit alpha/4,5-bisphosphate 3-kinase catalytic subunit alpha isoform (Homo sapiens, UniProt P27986+P42336)
# Test: Inhibition of human PI3Kalpha (p110alpha/p85alpha) by ADP accumulation based HTRF assay
# Phosphatidylinositol 3-kinase regulatory subunit alpha/4,5-bisphosphate 3-kinase catalytic subunit alpha isoform, sequence (P27986 whole entry, canonical isoform): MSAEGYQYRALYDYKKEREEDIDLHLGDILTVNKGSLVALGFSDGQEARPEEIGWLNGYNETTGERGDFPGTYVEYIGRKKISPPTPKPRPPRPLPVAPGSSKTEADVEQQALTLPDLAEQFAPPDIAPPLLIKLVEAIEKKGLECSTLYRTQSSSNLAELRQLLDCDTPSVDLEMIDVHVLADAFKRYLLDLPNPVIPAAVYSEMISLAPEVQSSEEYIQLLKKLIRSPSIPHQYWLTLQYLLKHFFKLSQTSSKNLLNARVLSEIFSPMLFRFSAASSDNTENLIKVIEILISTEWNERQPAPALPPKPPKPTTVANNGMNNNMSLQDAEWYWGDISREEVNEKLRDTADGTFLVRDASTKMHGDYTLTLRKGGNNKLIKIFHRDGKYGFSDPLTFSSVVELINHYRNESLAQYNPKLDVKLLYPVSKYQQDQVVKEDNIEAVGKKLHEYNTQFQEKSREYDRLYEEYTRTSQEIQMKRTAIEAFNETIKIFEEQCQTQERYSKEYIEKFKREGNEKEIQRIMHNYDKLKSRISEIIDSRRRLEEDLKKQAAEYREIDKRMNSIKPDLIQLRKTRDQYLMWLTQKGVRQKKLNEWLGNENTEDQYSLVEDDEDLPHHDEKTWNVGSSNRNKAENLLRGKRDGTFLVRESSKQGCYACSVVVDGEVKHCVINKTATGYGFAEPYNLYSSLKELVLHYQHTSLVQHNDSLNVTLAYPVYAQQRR
# Phosphatidylinositol 3-kinase regulatory subunit alpha/4,5-bisphosphate 3-kinase catalytic subunit alpha isoform, sequence (P42336 whole entry, canonical isoform): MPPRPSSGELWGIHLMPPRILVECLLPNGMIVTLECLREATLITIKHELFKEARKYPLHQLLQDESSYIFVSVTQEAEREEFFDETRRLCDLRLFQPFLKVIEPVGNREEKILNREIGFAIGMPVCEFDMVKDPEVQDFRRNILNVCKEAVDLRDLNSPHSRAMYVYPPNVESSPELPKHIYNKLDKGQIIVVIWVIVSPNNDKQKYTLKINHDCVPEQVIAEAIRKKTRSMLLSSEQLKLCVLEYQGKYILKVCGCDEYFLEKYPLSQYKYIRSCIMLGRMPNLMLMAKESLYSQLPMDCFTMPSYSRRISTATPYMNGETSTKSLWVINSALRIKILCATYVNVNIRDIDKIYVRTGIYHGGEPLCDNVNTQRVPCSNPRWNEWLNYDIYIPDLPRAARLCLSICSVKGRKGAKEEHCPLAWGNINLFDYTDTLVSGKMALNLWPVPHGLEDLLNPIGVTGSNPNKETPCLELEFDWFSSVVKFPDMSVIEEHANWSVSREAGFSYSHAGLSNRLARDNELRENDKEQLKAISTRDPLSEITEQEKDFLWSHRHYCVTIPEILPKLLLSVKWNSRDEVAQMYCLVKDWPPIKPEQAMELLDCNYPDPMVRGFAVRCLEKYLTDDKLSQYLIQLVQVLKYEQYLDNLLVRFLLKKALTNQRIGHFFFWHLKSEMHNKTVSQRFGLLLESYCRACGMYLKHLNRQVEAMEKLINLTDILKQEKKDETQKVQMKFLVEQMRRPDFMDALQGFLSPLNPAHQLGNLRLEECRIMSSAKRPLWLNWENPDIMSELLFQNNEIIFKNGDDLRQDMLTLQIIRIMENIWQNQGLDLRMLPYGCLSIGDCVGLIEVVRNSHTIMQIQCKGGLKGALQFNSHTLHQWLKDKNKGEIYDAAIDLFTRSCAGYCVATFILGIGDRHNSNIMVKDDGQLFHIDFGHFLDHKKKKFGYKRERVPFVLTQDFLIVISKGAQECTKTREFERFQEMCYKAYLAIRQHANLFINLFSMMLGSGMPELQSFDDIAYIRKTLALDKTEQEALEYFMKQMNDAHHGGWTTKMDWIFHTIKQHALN
row,SMILES,IC50 [nM]
1,CS(=O)(=O)N1CCN(Cc2cn3cc(-c4ccc(N)nc4)nc(N4CCOCC4)c3n2)CC1,169
2,CS(=O)(=O)N1CCC2(CC1)CN(Cc1cn3cc(-c4cnc(N)nc4)nc(N4CCOCC4)c3n1)C2,110
3,Cc1ccncc1-c1cn2cc(CN3CCN(S(C)(=O)=O)CC3)nc2c(N2CCOCC2)n1,468
4,CC(=O)Nc1ccc(-c2cn3cc(CN4CCN(S(C)(=O)=O)CC4)nc3c(N3CCOCC3)n2)cn1,210
5,COc1ccc(-c2cn3cc(CN4CCN(S(C)(=O)=O)CC4)nc3c(N3CCOCC3)n2)cn1,4550
6,Cc1ccc(-c2cn3cc(CN4CCN(S(C)(=O)=O)CC4)nc3c(N3CCOCC3)n2)cn1,776
7,CS(=O)(=O)N1CCN(Cc2cn3cc(-c4cnc5[nH]ccc5c4)nc(N4CCOCC4)c3n2)CC1,113

# Further compounds by falling IC50, results first:
row,IC50 [nM],SMILES
1,34,CN(C)CC(=O)N1CCN(Cc2cn3cc(-c4cnc(N)nc4)nc(N4CCOCC4)c3n2)CC1
2,32.3,Cc1nc(N)ncc1-c1cn2cc(CN3CCN(S(C)(=O)=O)CC3)nc2c(N2CCOCC2)n1
3,21.1,Cc1ncc(-c2cn3cc(CN4CCN(S(C)(=O)=O)CC4)nc3c(N3CCOCC3)n2)cn1
